Laboratory results: patent EP1049466B1, “CARBONIC ANHYDRASE INHIBITOR FOR INCREASING OXYGEN TENSION IN THE OPTIC NERVE AND RETINA” (Stefansson, Einar, priority 1998, dated 1999)

Key:
[1] = Continuous arterial blood pressure recording in the experimental pigs; type: in vivo, Danish agricultural pigs (landrace); details: after intravenous injection of 500 mg (Figure 7)
Experimental: Danish agricultural pigs (landrace), 25-33 kg in weight and brought up in specific pathogen free environment, were used. Their treatment was supervised by a veterinarian and followed the decrees of the ARVO Statement for the use of animals in ophthalmic and vision research. All experiments were conducted during daytime. The pigs were anaesthetised with midazolam (dormicum®) and ketamine followed by intravenous application of 250 mg mebumal, fentanylum (Haldid®, Jansen Cilag), 0.5 mg an hour, pancuron bromide (Pavulon®, Organon Technica, Sweden) 16 mg an hour, mebumal (Hospital Pharmacies, Denmark) 50 mg per ml as needed and atropine as needed. The right pupil was dilated with 1% tropicamide eye drops (Mydriacyl® and 2.5% phenylephrine eye drops. A arterial line was placed in a femoral artery for continuous measurement of blood pressure and intermittent blood gas analysis. A venous line was placed in a femoral vein for continuous infusion of the anaesthetics and saline as needed. A rectal thermoprobe provided continuous reading of body temperature.
Arterial blood samples were obtained at regular intervals and arterial PO2, pH and PCO2 were measured with a ABL 605 blood gas analyser (Radiometer, Denmark) (table 1). Arterial blood pressure, electrocardiogram and rectal temperature were monitored continuously and it was verified that these values were within normal limits. […]

[2] = intravenous; cited from earlier work
[3] = intravenous administration; cited from earlier work
optic nerve = experiment: Oxygen tension of optic nerve (ONPO2), polarographic electrode in the vitreous humour 0.5 mm over the optic disc of anaesthetised pigs; type: in vivo, Danish agricultural pigs (landrace)
Experimental: The pig was secured laterally on an operating table and a speculum was placed between the right eyelids. A conjunctival peritomy was performed and 3-0 silk sutures placed under the rectus muscle tendons to immobilise the eye. A sclerotomy was made 2.5 mm behind the limbus in the superonasal quadrant and a cannula placed, through which the polarographic electrode was advanced into the vitreous cavity. The electrode was held in a micromanipulator (Stoelting Inc. USA) and placed in the vitreous humour approximately 0.5 mm over the optic disc in an area not covered by the large vessels. The entire operation was performed using a Zeiss operating microscope and the electrode was placed using an indirect ophthalmoscope or the microscope and a flat corneal contact lens.
A silver-silver chloride reference electrode was placed in the conjunctival sac of the same (right) eye and kept moist with saline. The polarographic oxygen meter consists of a 100 micrometer platinum-iridium electrode inside a 20 gauge needle (Model 761), a silver-silver chloride reference electrode and a chemical microsensor (Model 1251, Diamond Electrotech Inc., Ann Arbor Mich., USA). The recording system was calibrated before and after each experiment in a calibration cell (Diamond Electrotech. Inc.) at 37 degrees Celsius in 0.9% saline using 100% N2, 5.0%02-95%N2 and 20.000%02-80%N2 (provided by AGA Inc. Denmark). The barometric pressure was monitored, and the oxygen tension recordings were adjusted for barometric pressure, and expressed as mmHg.
The experiments were all run with typical indoor illumination (white fluorescent light tubes (Philips TLM 4OW/29RS)). The ambient light intensity at the level of the pig's eye was measured with a Mavolux digital light meter (Gossen GmbH, Germany) and found to be 497 lux or 6 watt per square meter.
Each experiment was begun with the animal breathing 100% oxygen. Once a stable ONPO2 level was obtained the breathing mixture was changed to air, containing 21% oxygen, and a stable level obtained again. In some experiments the breathing mixture was changed to 20.000% O2 followed by 5.19% CO2, 19.9% O2 (N2 to balance), followed by 20.000% O2.
Polarographic oxygen electrodes were placed in the vitreous humour 0.5 mm above the optic disc in anaesthetized pigs. Arterial blood pressure and gasses were monitored and ONPO was recorded continously with various breathing gasses.

[4] = cited from earlier work
[5] = oral; blue field entopic technique; cited from earlier work

| Compound | arterial blood pressure [1] | retinal blood flow [2] | cerebral blood flow [3] | ONPO2 after injection (optic nerve; after 500 mg intravenous injection, anaesthetised pigs, mean ± SD) | ONPO2 before injection (optic nerve; baseline before 500 mg intravenous injection, anaesthetised pigs, mean ± SD) | dose dependence of the effect on ONPO2 (optic nerve; intravenous, dorzolamide effect seen with 6 to 500 mg (Figures 4 and 8)) | raised the optic nerve oxygen tension by (optic nerve; summary over the doses given, anaesthetised pigs, n=4 each, p=0.046 (dorzolamide), p=0.005 (acetazolamide)) | flow velocity in the intracranial arteries ([4]; in vivo) | flow velocity in the ophthalmic artery ([4]; in vivo) | ocular pulsatile blood flow ([4]; mainly originating from the choroidal circulation) | macular blood flow [5] | ONPO2 in response to breathing 5.19% CO2 (optic nerve; breathing 5.19% CO2 and 19.9% O2 (N2 to balance), n=4, p<0.001) | ONPO2 before breathing 5.19% CO2 (optic nerve; breathing 20% O2, n=4) |
| --- | --- | --- | --- | --- | --- | --- | --- | --- | --- | --- | --- | --- | --- |
| CC(=O)Nc1nnc(S(N)(=O)=O)s1 [acetazolamide] | transient lowering | increased | increased | 30.9± 10.0 mmHg | 23.6± 9.5 mmHg | dose dependent | 15-35% | increased | decrease | decrease | no effect | – | – |
| CO2 | – | – | – | – | – | – | – | – | – | – | – | 28.9 ± 3.6 mmHg | 20.8 ± 5.6 mmHg |
